Literature values in patent publication US20220323523A1, “METHOD AND APPARATUS FOR THE INFUSION OF CA[…] A SHELF-STABLE FOOD COMPOSITION” (priority 2019, published 2022).

Conditions: rats; for enhancement of exposure by co-administration of lipids compared to lipid-free formulations: co-administration of lipids vs lipid-free formulations

SMILES | enhancement of exposure by co-administration of lipids compared to lipid-free formulations [fold] | enhancement of bioavailability by co-administration of cannabinoids with lipids
C=C(C)[C@@H]1CCC(C)=C[C@H]1c1c(O)cc(CCCCC)cc1O [CBD, Cannabidiol] | 3 | ~3 fold
CCCCCc1cc(O)c2c(c1)OC(C)(C)[C@@H]1CCC(C)=C[C@@H]21 [THC, Tetrahydrocannabinol] | 2.5 | more than 2.5 fold
